Each block holds one compound with its values, some of them ahead of it.
Test: solvent given as SMILES

- absorption maximum (in CCO): 331 nm
- absorption maximum (in CCOC(C)=O): 331 nm
- absorption maximum (in CN(C)C=O): 333 nm
- absorption maximum (in CO): 330 nm
- absorption maximum (in ClC(Cl)Cl): 334 nm
Compound: COc1ccc2cc(-c3ccc(S(C)(=O)=O)cc3)oc(=O)c2c1

- absorption maximum (in CCCCCC): 344 nm
- absorption maximum (in CO): 344 nm
- absorption maximum (in ClCCl): 346 nm
Compound: Cc1ccc2ccc3c(C)ccc4ccc1c2c43

- absorption maximum (in ClCCl): 357 nm
Compound: C(=C\c1cccc2ccccc12)/c1ncc(-c2ccccc2)o1

- absorption maximum (in ClCCl): 389 nm
Compound: CCCCCCN1C(=O)c2cccc3c(-c4ccc(-c5cc(-c6ccc(Cl)cc6)nn5-c5ccccc5)s4)ccc(c23)C1=O

Compound: COc1ccc2c3c([nH]c2c1)C(C)=NCC3
- absorption maximum (in CC#N): 328 nm
- absorption maximum (in CS(C)=O): 330 nm
- absorption maximum (in O): 372 nm

- absorption maximum (in CCO): 362 nm
Compound: CC(C)=CCN1C(=O)c2cccc3c2c(cc2nc(C)oc23)C1=O

- absorption maximum (in C1CCOC1): 343 nm
- absorption maximum (in CCCCCC): 338 nm
- absorption maximum (in CCO): 344 nm
- absorption maximum (in CS(C)=O): 346 nm
Compound: CCCCOc1ccc2cc(-c3ccc(C)cc3)c(=O)oc2c1

- absorption maximum (in C1CCOC1): 386 nm
Compound: Cc1ccc(-c2cnc3nn4ccccc4c3c2)cc1

- absorption maximum (in ClCCl): 346 nm
Compound: CSc1ccc(/C=C/c2ccncn2)cc1

Compound: F[B-]1(F)n2c(cc(-c3ccccc3)c2-c2ccccc2)C(c2ccccc2)=C2C=C(c3ccccc3)C(c3ccccc3)=[N+]21
- absorption maximum (in C1CCOC1): 586 nm
- absorption maximum (in CC#N): 576 nm
- absorption maximum (in Cc1ccccc1): 592 nm
- absorption maximum (in ClCCl): 584 nm

Compound: CC[N+]1(CC)CN2C(=N1)C(C(=O)O)=Cc1ccc(Cl)cc12
- absorption maximum (in O): 367 nm

Compound: O=[N+]([O-])c1ccc(-n2c3ccccc3c3c2c2ccccc2n3-c2ccccc2)cc1
- absorption maximum (in Cc1ccccc1): 418 nm

- absorption maximum (in CC#N): 380 nm
- absorption maximum (in CCCCCC): 384 nm
- absorption maximum (in CO): 380 nm
- absorption maximum (in CS(C)=O): 390 nm
- absorption maximum (in ClC(Cl)Cl): 384 nm
Compound: N#Cc1ccc(N/N=C/c2ccc3ccccc3c2O)cc1

- absorption maximum (in CCO): 439 nm
Compound: OCc1ccc2c3cccc4cccc(c5cccc1c52)c43

Compound: CC(C)c1cc(C(C)C)c(B2c3ccccc3Oc3cc(-n4c5ccccc5c5ccc6c(c7ccccc7n6-c6ccccc6)c54)ccc32)c(C(C)C)c1
- absorption maximum (in Cc1ccccc1): 438 nm

Compound: C(#Cc1cc2ccc3cccc4ccc(c1)c2c34)c1ccccc1
- absorption maximum (in Cc1ccccc1): 390 nm

- absorption maximum (in O): 655 nm
Compound: CCN1CCCc2cc3c(cc21)Oc1cc2c(cc1=N3)C(CS(=O)(=O)[O-])CC(C)(C)[N+]=2CCCC(=O)[O-] (configuration not stated)

Compound: C(=C\c1cccc2ccccc12)/c1ccc(-c2nnc(-c3ccc(-c4cc5ccccc5s4)cc3)o2)cc1
- absorption maximum (in CC#N): 349 nm
- absorption maximum (in CC(C)=O): 350 nm
- absorption maximum (in CCCCCCCC): 354 nm
- absorption maximum (in CCCCCCCCCCO): 360 nm
- absorption maximum (in CCCCCCCCO): 359 nm
- absorption maximum (in CCCCCO): 356 nm
- absorption maximum (in CCCO): 342 nm
- absorption maximum (in CN(C)C=O): 357 nm
- absorption maximum (in CO): 351 nm
- absorption maximum (in CS(C)=O): 360 nm

- absorption maximum (in C1CCOC1): 513 nm
Compound: CC(C)(C)[Si](C)(C)C#CC1=CC2=c3cc(C#C[Si](C)(C)C(C)(C)C)c4nc(C(F)(F)C(F)(F)C(F)(F)F)nc5c(C#C[Si](C)(C)C(C)(C)C)cc(c3c54)C3=CC(C#C[Si](C)(C)C(C)(C)C)=C4N=C(C(F)(F)C(F)(F)C(F)(F)F)N=C1C4C32 (configuration not stated)

Compound: CC(C)(C)c1ccc2c(c1)c1cc(C(C)(C)C)ccc1n2-c1ccc(C(=C(C#N)C#N)c2ccc(-n3c4ccc(C(C)(C)C)cc4c4cc(C(C)(C)C)ccc43)cc2)cc1
- absorption maximum (in Cc1ccccc1): 438 nm

- absorption maximum (in ClC(Cl)Cl): 381 nm
Compound: CC[Si](CC)(CC)c1cc2ccc3cccc4ccc(c1C(=O)NC(C)(C)C)c2c34

- absorption maximum (in CC#N): 421 nm
Compound: CCN(CC)c1ccc2cc(/C=C/c3ccccc3)c(=O)oc2c1

Compound: C(#Cc1nc2ccccc2s1)c1ccc(N(c2ccc(C#Cc3nc4ccccc4s3)cc2)c2ccc(C#Cc3nc4ccccc4s3)cc2)cc1
- absorption maximum (in Cc1ccccc1): 404 nm

- absorption maximum (in C1CCCCC1): 333 nm
- absorption maximum (in CC#N): 336 nm
- absorption maximum (in CO): 336 nm
- absorption maximum (in ClC(Cl)Cl): 348 nm
Compound: CN(C)c1ccc(-c2ccc(-c3nc(C#N)c(C#N)n3C)cc2)cc1

Compound: Oc1ccccc1-c1nc2c3ccccc3c3ccccc3c2o1
- absorption maximum (in Cc1ccccc1): 364 nm

- absorption maximum (in ClC(Cl)Cl): 637 nm
Compound: F[B-]1(F)n2c(cc3oc4ccccc4c32)C(c2ccc(I)cc2)=C2C=c3oc4ccccc4c3=[N+]21

- absorption maximum (in CO): 412 nm
Compound: C1=CC2=Nc3cccc[n+]3CN2C=C1

Compound: CSc1cc(-c2cc3cc4c5c(c3oc2=O)CCCN5CCC4)oc(=O)c1C#N
- absorption maximum (in C1CCOC1): 532 nm
- absorption maximum (in CC#N): 537 nm
- absorption maximum (in CC(C)=O): 536 nm
- absorption maximum (in CCOC(C)=O): 527 nm
- absorption maximum (in CN(C)C=O): 545 nm
- absorption maximum (in CO): 537 nm
- absorption maximum (in CS(C)=O): 549 nm
- absorption maximum (in Cc1ccccc1): 527 nm
- absorption maximum (in ClC(Cl)Cl): 538 nm
- absorption maximum (in ClCCl): 541 nm

- absorption maximum (in C1CCOC1): 811 nm
- absorption maximum (in ClCCl): 826 nm
Compound: CCCCCCCc1ccc(C2=[N+]3C(=C4c5cc(OCC(CC)CC)c(-c6ccc(CCCCCCC)o6)n5[B-](F)(F)[n+]5nnn(c54)[B-]3(F)F)C=C2OCC(CC)CC)o1

Compound: N#Cc1c(-n2c3ccc(Br)cc3c3cc(Br)ccc32)c(C#N)c(-n2c3ccc(Br)cc3c3cc(Br)ccc32)c(-n2c3ccc(Br)cc3c3cc(Br)ccc32)c1-n1c2ccc(Br)cc2c2cc(Br)ccc21
- absorption maximum (in Cc1ccccc1): 374 nm

- absorption maximum (in C1CCOC1): 830 nm
Compound: C1=C2c3cc4ccccc4cc3C3=[N+]2[B-]2(Oc4ccccc43)Oc3ccccc3-c3c4cc5ccccc5cc4c1n32 (configuration not stated)

- absorption maximum (in C1CCCCC1): 427 nm
- absorption maximum (in C1CCOC1): 430 nm
- absorption maximum (in CC#N): 422 nm
- absorption maximum (in CO): 424 nm
- absorption maximum (in CS(C)=O): 436 nm
- absorption maximum (in ClCCl): 422 nm
- absorption maximum (in O): 390 nm
Compound: CC1=N/C(=C\c2ccccc2N)C(=O)N1C

Compound: Cc1cc(C)c(B(c2c(C)cc(C)cc2C)c2c(C)cc(-n3c4ccccc4c4cc(N(c5ccccc5)c5ccccc5)ccc43)cc2C)c(C)c1
- absorption maximum (in Cc1ccccc1): 375 nm

- absorption maximum (in ClCCl): 366 nm
Compound: COc1cc(OC)cc(-c2ccc(C3=CC(c4ccccc4)=C(c4ccccc4)C3)cc2)c1

- absorption maximum (in ClCCl): 325 nm
Compound: C(#Cc1ncc(-c2ccccc2)o1)c1ccco1

- absorption maximum (in CC1CCCCC1): 317 nm
- absorption maximum (in CC#N): 314 nm
- absorption maximum (in CO): 302 nm
Compound: COC(=O)C(NC(=O)OC(C)(C)C)c1ccc2oc(-c3ccc(F)cc3)nc2c1 (configuration not stated)

Compound: CCn1c2ccccc2c2cc(-c3cc(-c4ccc5c(c4)c4ccccc4n5CC)nc(-c4ccc(C#N)cc4)n3)ccc21
- absorption maximum (in C1CCOC1): 367 nm
- absorption maximum (in CCOC(C)=O): 363 nm
- absorption maximum (in CN(C)C=O): 370 nm
- absorption maximum (in Cc1ccccc1): 366 nm
- absorption maximum (in ClCCl): 365 nm

- absorption maximum (in ClCCl): 400 nm
Compound: Fc1ccc(-c2c3ccccc3nc3cc4ccccc4cc23)cc1

- absorption maximum (in ClCCl): 437 nm
Compound: CCCCCCn1c(=O)c2c3oc4ccccc4sc3c3c(=O)n(CCCCCC)c(=O)c3c2c1=O

- absorption maximum (in ClCCl): 336 nm
Compound: Fc1ccc(-c2cccc3ncc(-c4ccccc4)n23)cc1

- absorption maximum (in ClCCl): 494 nm
Compound: c1ccc(C2=C(c3ccccc3)c3cccc4c3c(cc3nc5ccccc5nc34)O2)cc1

- absorption maximum (in ClC(Cl)Cl): 364 nm
Compound: c1ccc2c(c1)-c1ccccc1C21c2cc(-c3ccc4ccc5cccc6ccc3c4c56)ccc2-c2ccc(-c3ccc4ccc5cccc6ccc3c4c56)cc21

Compound: CCC1(CC)c2cc(C=O)ccc2-c2ccc(N(C)C)cc21
- absorption maximum (in C1CCCCC1): 385 nm
- absorption maximum (in CC#N): 385 nm
- absorption maximum (in CCO): 388 nm
- absorption maximum (in CCOCC): 379 nm
- absorption maximum (in CS(C)=O): 395 nm
- absorption maximum (in ClCCl): 392 nm
- absorption maximum (in c1ccccc1): 388 nm

- absorption maximum (in ClCCl): 303 nm
Compound: Cc1cc2ccccc2c2c1c1ccccc1n2-c1ccccc1

- absorption maximum (in ClCCl): 343 nm
Compound: O=[N+]([O-])c1ccc2c(c1)-c1c3c(c4c([n+]1[B-](F)(F)O2)CCc1ccccc1-4)CCc1ccccc1-3

- absorption maximum (in CC#N): 360 nm
- absorption maximum (in CCO): 340 nm
Compound: O=c1c(-c2ccc(O)cc2)coc2cc(O)cc(O)c12

Compound: O=c1c2cc(-n3c4ccccc4c4ccccc43)ccc2sc2ccc(-n3c4ccccc4c4ccccc43)cc12
- absorption maximum (in C1CCOC1): 408 nm
- absorption maximum (in CCCCCC): 408 nm
- absorption maximum (in Cc1ccccc1): 408 nm
- absorption maximum (in ClC(Cl)Cl): 408 nm
- absorption maximum (in ClCCl): 408 nm

- absorption maximum (in ClCCl): 373 nm
Compound: CC(C)(C)c1ccc(C#Cc2cc(C#Cc3ccc(C(C)(C)C)cc3)c(C#Cc3ccc(C(C)(C)C)cc3)c(C#Cc3ccc(C(C)(C)C)cc3)c2C#Cc2ccc(C(C)(C)C)cc2)cc1

- absorption maximum (in ClCCl): 418 nm
Compound: O=Cc1ccc(/C=C/c2nc(N3CCOCC3)c3c([n+]2[O-])CCCC3)cc1

Compound: C(#Cc1cc2ccc3cc(C#Cc4ccccc4)cc4ccc(c1)c2c34)c1ccccc1
- absorption maximum (in Cc1ccccc1): 410 nm

- absorption maximum (in CCO): 376 nm
Compound: Cc1ccc(C(=O)OCc2c(C)c(=O)n3c(=O)c(C)c(C)n23)cc1

- absorption maximum (in CC#N): 293 nm
- absorption maximum (in ClCCl): 293 nm
Compound: CCOC(=O)c1ccc2nc(N)sc2c1

- absorption maximum (in ClCCl): 447 nm
Compound: Cc1ccccc1-c1c2cccc3c(-c4ccc(C(C)(C)C)cc4)cc4c(-c5ccccc5C)c5cccc6c(-c7ccc(C(C)(C)C)cc7)cc1c(c65)c4c32

- absorption maximum (in CC#N): 452 nm
Compound: CCN(CC)c1ccc2cc3c(cc2c1)C1(c2ccccc2Oc2ccccc21)c1cc2cc(N(CC)CC)ccc2cc1C3=O

- absorption maximum (in ClC(Cl)Cl): 355 nm
Compound: O=Cc1ccc(Oc2ccc3c4c(cccc24)C(=O)N(CCO)C3=O)cc1

- absorption maximum (in C1CCOC1): 431 nm
Compound: CCCCCCc1cc2c(s1)-c1sc(CCCCCC)cc1P(c1ccccc1)(c1ccccc1)=[O+][B-]2(c1c(C)cc(C)cc1C)c1c(C)cc(C)cc1C

Compound: O=c1oc2ccccc2cc1-c1cc2ccccc2o1
- absorption maximum (in CC#N): 366 nm
- absorption maximum (in CCOC(C)=O): 368 nm
- absorption maximum (in CS(C)=O): 371 nm
- absorption maximum (in Cc1ccccc1): 373 nm
- absorption maximum (in O): 365 nm

- absorption maximum (in C1CCOC1): 464 nm
- absorption maximum (in CC#N): 468 nm
- absorption maximum (in CCO): 460 nm
- absorption maximum (in CO): 461 nm
- absorption maximum (in ClCCl): 468 nm
Compound: O=C1C2=C(O[B-](F)(F)[n+]3c2ccc2ccccc23)c2ccc(N3CCOCC3)c3cccc1c23

- absorption maximum (in ClCCl): 339 nm
Compound: c1ccc(C2=C(c3ccccn3)[Si](c3ccccc3)(c3ccccc3)c3ccccc32)cc1

- absorption maximum (in CCO): 413 nm
Compound: CN(C)c1ccc(-c2ccc(C#N)s2)s1
